Data reported in patent US9499550B2 (BRISTOL-MYERS SQUIBB COMPANY, priority 2012, dated 2016).
Like-named read-outs stand apart in the source and are kept apart here.

Legend:
[1] = tested on: HCV genotype 1a (H77 strain) replicon in HUH-7 cells; assay: HCV replicon luciferase reporter assay, genotype 1a; format: cell-based; conditions: 3 days incubation
Method in brief: (§1)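 Replicon inhibition for both genotypes was measured as Renilla luciferase signal (EnduRen, 7.5 μM final, 2 h) after 3-day, 37° C exposure of replicon-bearing HUH-7 cells in 4% FCS DMEM, 0.5% DMSO. The 1b construct carries S1179I; the 1a H77 construct carries P1496L and S2204I. Twenty-point, 3-fold dilutions were fitted four-parametrically for EC50, and CC50 was taken from multiplexed Cell Titer-Blue.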

[2] = tested on: HCV genotype 1b (Con1) replicon in HUH-7 cells; assay: HCV replicon luciferase reporter assay, genotype 1b; format: cell-based; conditions: 3 days incubation
Method in brief: as §1

[3] = Hepatitis C virus, Huh-7, 72 h, HCV genotype 1a replicon luciferase, read-out: LE_1a (EC50, range)
[4] = Hepatitis C virus, Huh-7, 72 h, HCV genotype 1b replicon luciferase, read-out: LE_1b (EC50, range)
[5] = Hepatitis C virus, GETYPE1A, Huh-7, 72 h, HCV genotype 1a replicon luciferase, read-out: LE_1a (EC50, range)
[6] = Hepatitis C virus, GETYPE1B, Huh-7, 72 h, HCV genotype 1b replicon luciferase, read-out: LE_1b (EC50, range)
[7] = Hepatitis C virus, Huh-7, 72 h, HCV genotype 1a replicon luciferase assay, range class, read-out: LE_1a (EC50, range)
[8] = Hepatitis C virus, Huh-7, 72 h, HCV genotype 1b replicon luciferase assay, range class, read-out: LE_1b (EC50, range)

Compound | EC50 [1, 3] [nM] | EC50 [2, 4] [nM] | EC50 [1, 7] [nM] | EC50 [2, 8] [nM] | other results
COc1cc2ccnc(O[C@@H]3C[C@H]4C(=O)N[C@]5(C(=O)NS(=O)(=O)C6(CF)CC6)C[C@H]5/C=C\CC[C@@H](C)C[C@@H](C)[C@H](N)C(=O)N4C3)c2cc1F [Compound 4235, (2R,6S,7R,9R,13aS,14aR,16aS,Z)-6-amino-2-(7-fluoro-6-methoxyisoquinolin-1-yloxy)-N-(1-(fluoromethyl)cyclopropylsulfonyl)-7,9-dimethyl-5,16-dioxo-1,2,3,5,6,7,8,9,10,11,13a,14,14a,15,16,16a-hexadecahydrocyclopropa[e]pyrrolo[1,2-a][1,4]diazacyclopentadecine-14a-carboxamide] | 4.82 to 103 | 4.82 to 103 |  |  | 
COc1cc2ccnc(O[C@@H]3C[C@H]4C(=O)N[C@]5(C(=O)NS(=O)(=O)C6(CF)CC6)C[C@H]5/C=C\CC[C@@H](C)C[C@@H](C)[C@H](NC(=O)OC(C)(C)C(F)(F)F)C(=O)N4C3)c2cc1OC [Compound 5383, 1,1,1-trifluoro-2-methylpropan-2-yl((2R,6S,7R,9R,13aS,14aR,16aS,Z)-2-((6,7-dimethoxyisoquinolin-1-yl)oxy)-14a-(((1-(fluoromethyl)cyclopropyl)sulfonyl)carbamoyl)-7,9-dimethyl-5,16-dioxo-1,2,3,5,6,7,8,9,10,11,13a,14,14a,15,16,16a-hexadecahydrocyclopropa[e]pyrrolo[1,2-a][1,4]diazacyclopentadecin-6-yl)carbamate] |  |  |  |  | EC50 ([1]; HCV genotype 1a replicon luciferase, read-out: LE_1a (EC50, range)): 5.01 to 35 nM; EC50 ([2]; HCV genotype 1b replicon luciferase, read-out: LE_1b (EC50, range)): 1.01 to 5 nM
CC[C@@H]1C[C@H](C)CC/C=C\[C@@H]2C[C@@]2(C(=O)NS(=O)(=O)C2(C)CC2)NC(=O)[C@@H]2C[C@@H](Oc3ncc(N4CCOCC4)c4cc(OC)ccc34)CN2C(=O)[C@H]1NC(=O)OC(C)(C)C(F)(F)F [Compound 4206] |  |  |  |  | EC50 [1, 5]: < 5.46 nM; EC50 [2, 6]: < 5.46 nM
COc1cnc(O[C@@H]2C[C@H]3C(=O)N[C@]4(C(=O)NS(=O)(=O)C5(CO)CC5)C[C@H]4/C=C\CC[C@H](C)C[C@@H](C)[C@H](NC(=O)OC(C)(C)C(F)(F)F)C(=O)N3C2)c2ccccc12 [Compound 4111] |  |  |  |  | EC50 [1, 5]: > 87.4 nM; EC50 [2, 6]: 4.82 to 103 nM
CC[C@@H]1C[C@@H](C)CC/C=C\[C@@H]2C[C@@]2(C(=O)NS(=O)(=O)C2(CF)CC2)NC(=O)[C@@H]2C[C@@H](Oc3nccc4c5c(ccc34)N(C)CCO5)CN2C(=O)[C@H]1NC(=O)OC(C)(C)C(F)(F)F [Compound 5319, 1,1,1-trifluoro-2-methylpropan-2-yl((2R,6S,7R,9S,13aS,14aR,16aS,Z)-7-ethyl-14a-(((1-(fluoromethyl)cyclopropyl)sulfonyl)carbamoyl)-9-methyl-2-((4-methyl-3,4-dihydro-2H-[1,4]oxazino[2,3-f]isoquinolin-7-yl)oxy)-5,16-dioxo-1,2,3,5,6,7,8,9,10,11,13a,14,14a,15,16,16a-hexadecahydrocyclopropa[e]pyrrolo[1,2-a][1,4]diazacyclopentadecin-6-yl)carbamate] |  |  |  |  | EC50 ([1]; HCV genotype 1a replicon luciferase, read-out: LE_1a (EC50)): 33.6 nM; EC50 ([2]; HCV genotype 1b replicon luciferase, read-out: LE_1b (EC50)): 14.2 nM
C[C@@H]1CC/C=C\[C@@H]2C[C@@]2(C(=O)NS(=O)(=O)C2CC2)NC(=O)[C@@H]2C[C@@H](Oc3ncc(OC4CC4)c4c(Cl)cccc34)CN2C(=O)[C@@H](NC(=O)OC(C)(C)C(F)(F)F)[C@H](C)C1 [Compound 32] |  |  |  |  | EC50 ([1]; Hepatitis C virus, GETYPE1A, Huh-7, 72 h, HCV genotype 1a replicon luciferase assay, range class, read-out: LE_1a (EC50, range)): < 5.46 nM; EC50 ([2]; Hepatitis C virus, GETYPE1B, Huh-7, 72 h, HCV genotype 1b replicon luciferase assay, range class, read-out: LE_1b (EC50, range)): < 5.46 nM
CC[C@@H]1C[C@H](C)CC/C=C\[C@@H]2C[C@@]2(C(=O)NS(=O)(=O)C2CC2)NC(=O)[C@@H]2C[C@@H](Oc3nccc4cc(OC)c(F)cc34)CN2C(=O)[C@H]1NC(=O)OC(C)(C)C(C)(F)F [Compound 5473, 3,3-difluoro-2-methylbutan-2-yl((2R,6S,7R,9R,13aS,14aR,16aS,Z)-14a-((cyclopropylsulfonyl)carbamoyl)-7-ethyl-2-((7-fluoro-6-methoxyisoquinolin-1-yl)oxy)-9-methyl-5,16-dioxo-1,2,3,5,6,7,8,9,10,11,13a,14,14a,15,16,16a-hexadecahydrocyclopropa[e]pyrrolo[1,2-a][1,4]diazacyclopentadecin-6-yl)carbamate] | 1.01 to 5 | 0.1 to 0.5 |  |  | 
C[C@@H]1CC/C=C\[C@@H]2C[C@@]2(C(=O)NS(=O)(=O)C2(C)CC2)NC(=O)[C@@H]2C[C@@H](Oc3nccc4c5c(ccc34)OCCO5)CN2C(=O)[C@@H](NC(=O)OC(C)(C)C)[C@H](C)C1 [Compound 5245, tert-butyl ((2R,6S,7R,9R,13aS,14aR,16aS,Z)-2-((2,3-dihydro-[1,4]dioxino[2,3-f]isoquinolin-7-yl)oxy)-7,9-dimethyl-14a-(((1-methylcyclopropyl)sulfonyl)carbamoyl)-5,16-dioxo-1,2,3,5,6,7,8,9,10,11,13a,14,14a,15,16,16a-hexadecahydrocyclopropa[e]pyrrolo[1,2-a][1,4]diazacyclopentadecin-6-yl)carbamate] | < 5.46 | < 5.46 |  |  | 
COCCOc1cnc(O[C@@H]2C[C@H]3C(=O)N[C@]4(C(=O)NS(=O)(=O)C5CC5)C[C@H]4/C=C\CC[C@@H](C)C[C@@H](C)[C@H](NC(=O)OC(C)(C)C)C(=O)N3C2)c2ccc(OC)cc12 [Compound 1155, tert-butyl ((2R,6S,7R,9R,13aS,14aR,16aS,Z)-14a-((cyclopropylsulfonyl)carbamoyl)-2-((6-methoxy-4-(2-methoxyethoxyl)isoquinolin-1-yl)oxy)-7,9-dimethyl-5,16-dioxo-1,2,3,5,6,7,8,9,10,11,13a,14,14a,15,16,16a-hexadecahydrocyclopropa[e]pyrrolo[1,2-a][1,4]diazacyclopentadecin-6-yl)carbamate] |  |  | < 5.46 | < 5.46 | 
CC[C@@H]1C[C@H](C)CC/C=C\[C@@H]2C[C@@]2(C(=O)NS(=O)(=O)C2(C)CC2)NC(=O)[C@@H]2C[C@@H](Oc3cc(-n4cccn4)nc4cc(OC)ccc34)CN2C(=O)[C@H]1NC(=O)OC(C)(C)C [Compound 4245, tert-butyl ((2R,6S,7R,9R,13aS,14aR,16aS,Z)-7-ethyl-2-((7-methoxy-2-(1H-pyrazol-1-yl)quinolin-4-yl)oxy)-9-methyl-14a-(((1-methylcyclopropyl)sulfonyl)carbamoyl)-5,16-dioxo-1,2,3,5,6,7,8,9,10,11,13a,14,14a,15,16,16a-hexadecahydrocyclopropa[e]pyrrolo[1,2-a][1,4]diazacyclopentadecin-6-yl)carbamate] | 0.51 to 1 | 0.1 to 0.5 |  |  | 
CC(C)Oc1cc2c(Cl)cccc2c(O[C@@H]2C[C@H]3C(=O)N[C@]4(C(=O)NS(=O)(=O)C5CC5)C[C@H]4/C=C\CC[C@@H](C)C[C@@H](C)[C@H](NC(=O)OC(C)(C)C(C)(F)F)C(=O)N3C2)n1 [Compound 1106, 3,3-difluoro-2-methylbutan-2-yl((2R,6S,7R,9R,13aS,14aR,16aS,Z)-2-((5-chloro-3-isopropoxyisoquinolin-1-yl)oxy)-14a-((cyclopropylsulfonyl)carbamoyl)-7,9-dimethyl-5,16-dioxo-1,2,3,5,6,7,8,9,10,11,13a,14,14a,15,16,16a-hexadecahydrocyclopropa[e]pyrrolo[1,2-a][1,4]diazacyclopentadecin-6-yl)carbamate] |  |  | < 5.46 | < 5.46 | 
COc1cnc(O[C@@H]2C[C@H]3C(=O)N[C@]4(C(=O)NS(=O)(=O)C5(CF)CC5)C[C@H]4/C=C\CC[C@@H](C)C[C@@H](C)[C@H](NC(=O)OC4(C(F)(F)F)COC4)C(=O)N3C2)c2ccccc12 [Compound 1046, 3-(trifluoromethyl)oxetan-3-yl ((2R,6S,7R,9R,13aS,14aR,16aS,Z)-14a-(((1-(fluoromethyl)cyclopropyl)sulfonyl)carbamoyl)-2-((4-methoxyisoquinolin-1-yl)oxy)-7,9-dimethyl-5,16-dioxo-1,2,3,5,6,7,8,9,10,11,13a,14,14a,15,16,16a-hexadecahydrocyclopropa[e]pyrrolo[1,2-a][1,4]diazacyclopentadecin-6-yl)carbamate] |  |  | < 5.46 | < 5.46 | 
CC[C@@H]1C[C@H](C)CC/C=C\[C@@H]2C[C@@]2(C(=O)NS(=O)(=O)C2CC2)NC(=O)[C@@H]2C[C@@H](Oc3nccc4c(OC)cccc34)CN2C(=O)[C@H]1NC(=O)OC(C)(C)C(F)(F)F [Compound 3032, 1,1,1-trifluoro-2-methylpropan-2-yl((2R,6S,7R,9R,13aS,14aR,16aS,Z)-14a-((cyclopropylsulfonyl)carbamoyl)-7-ethyl-2-((5-methoxyisoquinolin-1-yl)oxy)-9-methyl-5,16-dioxo-1,2,3,5,6,7,8,9,10,11,13a,14,14a,15,16,16a-hexadecahydrocyclopropa[e]pyrrolo[1,2-a][1,4]diazacyclopentadecin-6-yl)carbamate] |  |  | < 5.46 | < 5.46 | 
